# Experimental data as given in patent US8858914B2 (Endocyte, Inc., priority 2002, dated 2014).
# What was measured:
# L1210 tumor nodules = test: imaging of metastatic L1210 lesions after iv inoculation; format: in vivo, mouse
# Excerpt: To further explore the ability of folate-fluorescein to image small metastatic lesions, L1210 cells were also inoculated intravenously into syngeneic mice and the various anatomical regions were again imaged as above. Since L1210 cells are lymphocytic in origin and relatively small in size, they are capable of forming tumor nodules throughout the body after iv injection, rather than becoming entrapped primarily in the lung capillary network. […] Further, the animal's spleen was almost entirely filled with minute tumor loci (FIG. 9a) and was consequently enlarged to roughly twice its normal size. Tumor nodules were also found in muscle tissue near the shoulder (FIG. 9b) and in the brain, spinal cord, and along the pleura.
# [1] = test system: folate receptor-expressing tumor tissue
# Procedure: Tumors are induced subcutaneously by injecting 100 μL of cell culture solution containing approximately 500,000 M109 or L1210 cells. Imaging of mice with subcutaneous tumors is performed when the tumors reach approximately 200 mm^3 in size. For intraperitoneal (i.p.) tumors, approximately 500,000 M109 or L1210 cells are implanted in the peritoneal cavity and allowed to proliferate for approximately 2 weeks prior to analysis, which is sufficient time for tumor masses greater than 1 mm^3 to appear. Metastatic tumors are initiated by injection of approximately 200,000 M109 or L1210 cells into the femoral vein, and the imaging is performed two weeks afterwards in a variety of tissues.
# In this case, the laser 12 is used to illuminate a 5 mm diameter area of a sample placed on an OLYMPUS BH-2 microscope 14 stage (Olympus, Inc., Melville, N.Y.). […] The fluorescence spectra are acquired using KESTREL Spec software (Princeton Instruments, Trenton, N.J.) with an integration time of 5 s, and fluorescence wavelengths are calibrated against neon lamp calibration lines.
# Once again, light 28 from an argon laser 12 is directed via mirrors 26 so as to illuminate tissue on a stage 32 of microscope 14. Any fluorescence is captured by camera 34 via filter 35, similar to filter 120, and by the spectrograph 22. […]
# [2] = test system: arthritic joints (folate receptor expressing macrophages); details: rat paws
# Excerpt: Targeting a photosensitizer to arthritic joints allow phototherapy to be applied to the arthritic joint while preventing toxicity to other tissues. […] One potential application of arthritis imaging is in the area of sport animal medicine. Race animals, such as dogs or horses, that have arthritis, could be diagnosed in an easy, inexpensive, and nonradioactive manner by using fluorescent imaging agents.
# M109 tumor nodules = test: imaging of metastatic tumor nodules of M109 cell origin (ip or iv inoculation); format: in vivo, mouse
# Excerpt: In order to test the ability of folate-fluorescein to facilitate detection of microscopic tumor nodules, metastatic tumors of M109 cell origin were induced by inoculation of cells either into the peritoneal cavity (ip) or femoral vein (iv) of the syngeneic mice. After allowing sufficient time for tumor growth, tumor loci were again imaged by intravenous administration of folate-fluorescein followed by laser excitation.
# M109 and L1210 tumors = test: whole-tissue fluorescence imaging of tumors vs adjacent normal tissue after iv injection; format: in vivo, mouse; details: M109 (Balb/c) and L1210 (DBA) tumors, 2 h after iv injection, argon laser 488 nm
# Procedure: Whole-tissue fluorescent imaging is performed using the imaging system 110 shown in FIG. 2 including an argon laser 12 (Spectra-Physics, Mountain View, Calif.) operating at 488 nm with a total laser power of 200 mW reaching the 2 cm sample field of view 114. Fluorescence is detected by a colored CCD camera 116 such as a JAI CV-53200N manufactured by Edmund Industrial Optics, Barrington, N.J. with a sensing area of 768×494 pixels and a pixel size of […]. An f/5.6 152-457 mm 10× CCD zoom lens 118, also produced by Edmund Industrial Optics, Barrington, N.J., is used to collect fluorescence from the 2.0 cm×2.0 cm field of view 114. A band pass filter 120 with […] 80% T at 515-585 nm (Inter, Inc., Socorro, N.M.) is placed between the lens 118 and the CCD Camera 116 in order to reject laser light 20 and suppress tissue auto-fluorescence outside the fluorescein fluorescence band. The images are digitally acquired using SNAPPY software v. 4.0 manufactured by Play, Inc., Sacramento, Calif.
# The light 20 of laser 12 is aimed via a plurality of mirrors 26 such that the light 20 passes through a diffusing lens 124 to illuminate the field of view 114 as shown in FIG. 2. […]
# In fact, the differences in fluorescence intensity were readily apparent to the naked eye without the assistance of optical equipment as shown in the upper pictures of FIGS. 5a-c. […]
substance,measurement,setting,value
folate-γ-fluorescein [folate-fluorescein],fluorescence of L1210 tumor nodules throughout the body,"L1210 tumor nodules; most tissues of the body, laser illumination",no nodules were identified that did not fluoresce
same,detection of microscopic L1210 nodules in liver under laser illumination,L1210 tumor nodules; under and top surface of the liver,clearly revealed under laser illumination
same,"fluorescence intensity of liver and muscle tissues, injected vs noninjected mice",[1]; liver and muscle tissues not expressing the folate receptor,no difference in fluorescence intensity
same,fluorescence of tumor tissue from injected mice relative to autofluorescence of noninjected controls,"[1]; tumor tissue, 2 h after injection of 8.7 μg, laser excitation",approximately fivefold
same,contrast between arthritic and non-arthritic tissues,[2],discernable contrast
same,fluorescence of tumor metastases compared to adjacent nonmalignant tissue,"M109 tumor nodules; intravenously inoculated mice, lungs",all tumor metastases fluoresced intensely
same,size of metastatic tumor nodules readily observable,"M109 tumor nodules; lungs of intravenously inoculated mice, iv conjugate, laser excitation",smaller than 0.5 mm
same,fluorescence of tumors compared with adjacent normal tissues,M109 and L1210 tumors,significantly more fluorescent than adjacent normal tissues
